Data published in patent US7820689B2, “Methods and compositions for preventing or treating cardiovascular disease” (priority 2006, dated 2010).
Where two headings read alike, the source gives them in different places.

Legend:
[1] = test system: IL-6 release from THP-1 cells after LPS stimulation; assay: LPS-induced IL-6 release in THP-1 macrophage culture (ELISA); format: cell-based, human
Procedure: (§1) THP-1 cells were grown in the RPMI-1640 medium containing 10% fetal bovine serum at 37° C. in 5% CO2. The cells were differentiated to macrophages after treatment of the culture with 100 nM PMA for 24 hours. The cell suspension (5×10^5) was added in 0.5 mL into each well of the tissue culture plates. For each experiment, naloxone was prepared immediately before use. LPS was dissolved in sterile water and stored at −70° C. in aliquots. LDL was isolated from human endotoxin-free heparin plasma and was oxidized using CuSO4. In brief, LDL (1 mL, 1 mg/mL) was dialyzed in 500 mL phosphate-buffered saline (PBS, pH 7.4) overnight. Copper sulfate was added to a final concentration of 5 μM, and the LDL was allowed to oxidize at room temperature for 24 hours.
(§2) The supernatants were harvested and the TNF-α, IL-6, and MCP-1 levels were determined by ELISA. Superoxide production in the THP-1 cell culture was measured by lucigenin-enhanced chemiluminescence as described previously (Khadour F H, Panas D, Ferdinandy P, et al. Am J Physiol Heart Circ Physiol, 28:H1108-15 2002). LPS-treated THP-1 cells were treated with PBS containing 1.25 mM lucigenin, and counts were obtained for a 10-minute period in a luminometer (Berthold Technologies, Germany) as relative light units (RLU) emitted. Background counts determined in cell-free preparations were subtracted. Superoxide levels were reported as RLU per 10 minutes and were normalized to the volume (mL) of cell suspension added (i.e., RUL/10 min/mL).

apoE-deficient mice = format: in vivo
Procedure: ApoE-deficient mice were fed with a high cholesterol diet containing 21% fat and 0.15% cholesterol (PMI LabDiet 40097, Richmond, Ind., USA) from 8-17 weeks of age. […] After completing the treatment, blood samples were collected by direct heart puncture when sacrificing the animals. The serum levels of total cholesterol, LDL, HDL, and triglyceride were measured by enzymatic methods using an automatic analyzer (Model 747, Hitachi Ltd. Co., Tokyo, Japan). The aorta was dissected from the aortic valve to the iliac bifurcation. To identify lipid-rich atherosclerotic lesions, the aorta was rinsed in 50% isopropanol for 2 minutes, incubated in 0.67% Oil-Red-O for 15 minutes, and washed by 10% isopropanol for 2 minutes. Using a dissection microscope, the area of each atherosclerotic lesion was measured with Image Pro Plus software (Version 3.0.1; Media Cybernetics, Inc, Silver Spring, Md., USA) and expressed as percentage of atherosclerotic area/total area of the aorta.

C57BL/6 mice = assay: Carotid artery ligation vascular remodeling model, morphometry; format: in vivo; details: for neointima/media (N/M) ratio: 28 days after surgery, controls 1.4±0.6; for lumen area / neointima area: 28 days; for lumen area: PBS 12859±7258; for neointima area: PBS 33623±9377
Description: Adult C57BL/6 mice (8-12 weeks) were anesthetized by intraperitoneal injection of sodium pentobarbital. The left common carotid artery was isolated and ligated completely with a 6-0 silk suture near the carotid bifurcation. […] After completing the treatment the animals were sacrificed and the segment of the left common carotid artery just proximal to the ligation was excised, fixed in 4% paraformaldehyde, and embedded in paraffin. Five transverse sections per animal were cut at 100 μm intervals and stained with hematoxylin-eosin. The borders of the internal lumen, internal elastic lamina (IEL), and external elastic lamina (EEL) were traced on a digitizing board using Meta Imaging Series 5.0 software ([…].). The luminal, IEL, and EEL areas were measured. The neointima area was calculated by subtracting the luminal area from the IEL area, and the media area was calculated by subtracting the IEL area from the EEL area. The total vascular area was represented by EEL area. The ratio of neointima to media area (N/M ratio) was calculated. Average values were obtained from morphometric analysis of each section of the animal.
Data were given as mean±SD. The Mann-Whitney U test was used to compare continuous variables between the two groups. […] All statistical analyses were performed using SPSS 12.0 (SPSS Inc. Chicago, Ill., USA). The statistical significance level was set at P<0.05, two-tailed.

[2] = test system: IL-6 release from THP-1 cells after oxLDL stimulation; assay: oxLDL-induced IL-6 release in THP-1 macrophage culture (ELISA); format: cell-based, human
Procedure: as §1, §2

THP-1 cells = assay: MTT cell viability assay; format: cell-based, human; details: with or without LPS
Procedure: Cell viability was determined with the 3 (4,5-dimethylthiazol-2-yl) 2,5-diphenyltetrazolium bromide (MTT) assay in each treatment group described above. Briefly, fresh medium was added to cells together with 10% MTT (5 mg/mL). Each plate was maintained at 37° C. for 2 hours and subsequently formazan crystals were dissolved in DMSO. Absorbance was read at a wavelength of 550 nm using a SPECTRAmax PLUS^384 spectrophotometer (Molecular Devices, CA, USA).

[3] = test system: TNF-α production from the THP-1 cell culture after LPS stimulation; assay: LPS-induced TNF-α production in PMA-differentiated THP-1 macrophage culture (ELISA); format: cell-based, human; details: for TNF-α production after LPS: 1 h before 100 ng/mL LPS, 24 h; for TNFα in medium: LPS 100 ng/mL, LPS alone 8.02±0.42
Procedure: as §1
The TNF-α level in the supernatant was determined by ELISA.
as §2
To investigate the DM effect on macrophage activation, determined the effective DM concentrations were first needed. In a pilot experiment, the effective DM concentration that inhibited TNF-α production from macrophages was examined. […] The THP-1 cell culture was pretreated for 1 hour with various concentrations of DM (1-10^−8 μM) prior to treatment with 100 ng/mL LPS for 24 hours. The TNF-α level in the supernatant was determined by ELISA. […] One μM DM could reduce TNF-α production up to 44 percent in the THP-1 cell culture after LPS stimulation (Table 3). Therefore, subsequent experiments were performed with these effective DM concentrations (0.01, 0.1, and 1 μM).

COc1ccc2c(c1)[C@]13CCCC[C@@H]1[C@H](C2)N(C)CC3 [DM, (+)-3-methoxy-17-methyl-9α,13α,14α-morphinan] showed an IL-6 in medium ([1]; DM 0.01 μM pretreatment, LPS alone 9.53±1.95) of 6.22 ± 2.46 ng/mL, an IL-6 in medium ([1]; DM 0.1 μM pretreatment, LPS alone 9.53±1.95) of 6.21 ± 1.89 ng/mL and an IL-6 in medium ([1]; DM 1 μM pretreatment, LPS alone 9.53±1.95) of 5.36 ± 1.76 ng/mL. For the same compound, the “aortic atherosclerotic lesion area” value (apoE-deficient mice; DM 5 mg/kg/day 10 weeks, P=NS, controls 16.9±4.3) was 14.1±5.7%, the “aortic atherosclerotic lesion area” value (apoE-deficient mice; DM 10 mg/kg/day 10 weeks, controls 16.9±4.3) was 8.2±3.8% and the “aortic atherosclerotic lesion area” value (apoE-deficient mice; DM 20 mg/kg/day 10 weeks, controls 16.9±4.3) was 5.0±2.0%. For the same compound, the “aortic atherosclerotic lesion area” value (apoE-deficient mice; DM 40 mg/kg/day 10 weeks, controls 16.9±4.3) was 4.6±3.6%, the “neointima/media (N/M) ratio” value (C57BL/6 mice; DM 5 mg/kg/day 4 weeks, P=NS) was 1.1±0.7 and the “neointima/media (N/M) ratio” value (C57BL/6 mice; DM 10 mg/kg/day 4 weeks) was 0.7±0.3. The “neointima/media (N/M) ratio” value (C57BL/6 mice; DM 20 mg/kg/day 4 weeks) was 0.4±0.2, the “neointima/media (N/M) ratio” value (C57BL/6 mice; DM 40 mg/kg/day 4 weeks) was 0.5±0.2 and the IL-6 in medium ([2]; DM 0.01 μM pretreatment, oxLDL alone 2.46±1.20) was 1.40 ± 0.58 ng/mL. For the same compound, the IL-6 in medium ([2]; DM 0.1 μM pretreatment, oxLDL alone 2.46±1.20) was 1.28 ± 0.64 ng/mL, the IL-6 in medium ([2]; DM 1 μM pretreatment, oxLDL alone 2.46±1.20) was 1.33 ± 0.67 ng/mL and the “cell viability (MTT)” value (THP-1 cells; 0.01, 0.1, or 1 μM DM) was “no significant changes of the cell viability”. The TNF-α in medium ([3]; DM 0.01 μM pretreatment, LPS, LPS alone 8.85±0.81) was 6.93 ± 0.76 ng/mL, the “TNF-α production after LPS” value ([3]; DM pretreatment 1 μM) was 56 ± 10 % control and the “TNF-α production after LPS” value ([3]; DM pretreatment 10^−2 μM) was 74 ± 4 % control. For the same compound, the “TNF-α production after LPS” value ([3]; DM pretreatment 10^−6 μM) was 83 ± 3 % control, the “reduction of TNF-α production” value ([3]; One μM DM, THP-1 cell culture after LPS stimulation) was “up to 44%” and the “most effective DM concentrations that suppressed macrophage TNF-α production” value ([3]; THP-1, after LPS stimulation) was 0.01 to 1 µM.
With C=CCN1CC[C@]23c4c5ccc(O)c4O[C@H]2C(=O)CC[C@@]3(O)[C@H]1C5 [Naloxone, 17-allyl-4,5α-epoxy-3,14-dihydroxymorphinan-6-one] the IL-6 in medium ([1]; 0.01 μM pretreatment, LPS alone 5.02±0.14) was 3.74 ± 0.31 ng/mL, the IL-6 in medium ([1]; 0.1 μM pretreatment, LPS alone 5.02±0.14) was 3.28 ± 0.14 ng/mL and the IL-6 in medium ([1]; 1 μM pretreatment, LPS alone 5.02±0.14) was 3.44 ± 0.48 ng/mL. The “aortic atherosclerotic lesion area” value (apoE-deficient mice; 10 mg/kg/day i.p. 10 weeks, PBS 12.9±6.1) was 5.2±3.8%, the “aortic atherosclerotic lesion area” value (apoE-deficient mice; 20 mg/kg/day i.p. 10 weeks, PBS 12.9±6.1) was 3.4±1.4% and the “aortic atherosclerotic lesion area” value (apoE-deficient mice; 25 mg/kg/day i.p. 10 weeks, PBS 12.9±6.1) was 1.8±1.2%. For the same compound, the lumen area (C57BL/6 mice; 10 mg/kg/day) was 24475±5261 μm^2, the neointima area (C57BL/6 mice; 10 mg/kg/day) was 20052±4372 μm^2 and the lumen area (C57BL/6 mice; 20 mg/kg/day) was 26452±9024 μm^2. It also gave a neointima area (C57BL/6 mice; 20 mg/kg/day) of 14233±4040 μm^2, a lumen area (C57BL/6 mice; 25 mg/kg/day) of 29650±5643 μm^2 and a neointima area (C57BL/6 mice; 25 mg/kg/day) of 13865±3494 μm^2. For the same compound, the “Media area regression coefficient (naloxone)” value (C57BL/6 mice; Naloxone 10 mg/kg/day) was 2950, the “Neointima area regression coefficient (naloxone)” value (C57BL/6 mice; Naloxone 10 mg/kg/day) was −13951 and the “Total area regression coefficient (naloxone)” value (C57BL/6 mice; Naloxone 10 mg/kg/day) was −11000. The “Lumen area regression coefficient (naloxone)” value (C57BL/6 mice; Naloxone 10 mg/kg/day, Area = B1 + B2 (Naloxone) + B3 (Distance (mm))) was 12016, the “Lumen area regression coefficient (naloxone)” value (C57BL/6 mice; Naloxone 20 mg/kg/day) was 14033 and the “Media area regression coefficient (naloxone)” value (C57BL/6 mice; Naloxone 20 mg/kg/day) was 10001. For the same compound, the “Neointima area regression coefficient (naloxone)” value (C57BL/6 mice; Naloxone 20 mg/kg/day) was −19584, the “Total area regression coefficient (naloxone)” value (C57BL/6 mice; Naloxone 20 mg/kg/day) was −9582 and the “Lumen area regression coefficient (naloxone)” value (C57BL/6 mice; Naloxone 25 mg/kg/day) was 16993. The “Media area regression coefficient (naloxone)” value (C57BL/6 mice; Naloxone 25 mg/kg/day) was 8112, the “Neointima area regression coefficient (naloxone)” value (C57BL/6 mice; Naloxone 25 mg/kg/day) was −20380 and the “Total area regression coefficient (naloxone)” value (C57BL/6 mice; Naloxone 25 mg/kg/day) was −12267. The “influence of naloxone treatment in regression model of carotid remodeling” value (C57BL/6 mice; multiple regression, independent of the distance to ligation) was “had a statistically significant influence on the lumen, neointima, and total vascular areas”, the IL-6 in medium ([2]; 0.01 μM pretreatment, oxLDL alone 1.51±0.08) was 1.05 ± 0.03 ng/mL and the IL-6 in medium ([2]; 0.1 μM pretreatment, oxLDL alone 1.51±0.08) was 1.01 ± 0.01 ng/mL. The IL-6 in medium ([2]; 1 μM pretreatment, oxLDL alone 1.51±0.08) was 1.05 ± 0.07 ng/mL, the “cell viability (MTT)” value (THP-1 cells; 0.01, 0.1, or 1 μM naloxone) was “no significant changes of the cell viability” and the TNFα in medium ([3]; 0.1 μM pretreatment) was 4.10 ± 0.37 ng/mL. The TNFα in medium ([3]; 1 μM pretreatment) was 4.41 ± 0.36 ng/mL and the “reduction of TNFα production” value ([3]; 0.01-1 μM, THP1 cell culture after LPS stimulation) was 50%.
